According to US20070191492A1, “Method for suppressing lung tumorigenesis” (Sumitomo Chemical Company, Limited, priority 2003, published 2007):

System: lung tumorigenesis
Test: multi-organ carcinogenesis model in rats: suppression of lung tumorigenesis (histopathological examination of lung)
Format: in vivo, male F344 rat
Details: for Frequency of Animals having Tumors, Adenoma (animals with tumor / animals in group) / Frequency of Animals having Tumors, Adenoma (percent) / Frequency of Animals having Tumors, Carcinoma (animals with tumor / animals in group) / Frequency of Animals having Tumors, Carcinoma (percent) / Frequency of Animals having Tumors, Sum of Tumors (animals with tumor / animals in group) / Frequency of Animals having Tumors, Sum of Tumors (percent) / Tumor Multiplicity, Carcinoma (average number of tumors per individual ± standard deviation) / Tumor Multiplicity, Adenoma (average number of tumors per individual ± standard deviation) / Tumor Multiplicity, Sum of Tumors (average number of tumors per individual ± standard deviation): lung, 23 weeks
Procedure: With respect to the compound 1 (13α, 14α-epoxy-3β-methoxyserratan-21β-ol) obtained in Example 1, activities for suppressing or inhibiting lung tumorigenesis were measured using a multi-organ carcinogenesis model in rats.
Diethylnitrosamine dissolved in saline was once administered interperitoneally to each male F344 rat at 6 weeks of age (Charles River Japan, Inc.) at a dose of 100 mg/kg body weight wherein this day was made to be day 1 of the testing. In succession, N-methyl-N-nitrosourea dissolved in saline was administered interperitoneally at a dose of 20 mg/kg body weight at day 4, 8, 11 and 15 of the testing (total four times of dosing). Furthermore, dimethylhydrazine dissolved in saline was administered subcutaneously at a dose of 40 mg/kg body weight at day 18, 22, 25, 29, 32 and 36 of the testing (total six times of dosing). In parallel with administration of these carcinogens, drinking water into which 0.05% N-butyl-N-(4-hydroxybutyl)nitrosamine was dissolved was allowed to ingest to the F344 rat from day 1 of the testing for the following four weeks. Thereafter, drinking water into which around 0.1% of 2, 2′-dihydroxy-di-n-propylnitrosamine was dissolved was allowed to ingest to the F344 rat for over two weeks from the beginning of week 5 to the end of week 6 of the testing. With respect to the F344 rat treated with a variety of carcinogens as described above, administration of the compound 1 was started from the beginning of week 8 of the testing. The compound 1 was dissolved into corn oil and forcibly administered orally into stomach using a sonde at a dose of 5 or 10 mg/kg body weight. The administration was implemented at a frequency of once a day, five days in a week, and continued for twenty three weeks. As a reference, untreated groups to which no compound 1 was administered were provided. After elapsed thirty weeks from starting the testing, each F344 rat had been sacrified to isolate a lung, and histopathological examination was conducted on the lung thus isolated. With respect to neoplastic lesions, they were classified into a benign or malignant lesion, and a number of animals each having a benign tumor or a malignant tumor and a number of tumors were counted in each group.

[1] = 5 mg/kg orally once a day, five days a week, examined after 30 weeks
[2] = treated group vs untreated group, in words

In the case of “13α, 14α-epoxy-3β-methoxyserratan-21β-ol [Compound 1]”, the “Frequency of Animals having Tumors, Adenoma (animals with tumor / animals in group)” value [1] is reported as 11/20, the “Frequency of Animals having Tumors, Adenoma (percent)” value [1] is reported as 55% and the “Frequency of Animals having Tumors, Carcinoma (animals with tumor / animals in group)” value (5 mg/kg orally, P < 0.05) is reported as 1/20. For the same substance, the “Frequency of Animals having Tumors, Carcinoma (percent)” value (5 mg/kg orally, P < 0.05) was 5%, the “Frequency of Animals having Tumors, Sum of Tumors (animals with tumor / animals in group)” value (5 mg/kg orally, P < 0.05) was 11/20 and the Frequency of Animals having Tumors, Sum of Tumors (percent) (5 mg/kg orally, P < 0.05) was 55%. The “Tumor Multiplicity, Carcinoma (average number of tumors per individual ± standard deviation)” value (5 mg/kg orally, P < 0.05) was 0.05 ± 0.22, the “Tumor Multiplicity, Adenoma (average number of tumors per individual ± standard deviation)” value (5 mg/kg orally, p < 0.01) was 0.70 ± 0.80 and the “Tumor Multiplicity, Sum of Tumors (average number of tumors per individual ± standard deviation)” value (5 mg/kg orally, p < 0.01) was 0.75 ± 0.85. For the same substance, the “Frequency of Animals having Tumors, Adenoma (animals with tumor / animals in group)” value (10 mg/kg orally) was 12/19, the “Frequency of Animals having Tumors, Adenoma (percent)” value (10 mg/kg orally) was 67% and the “Frequency of Animals having Tumors, Carcinoma (animals with tumor / animals in group)” value (10 mg/kg orally) was 5/19. For the same substance, the “Frequency of Animals having Tumors, Carcinoma (percent)” value (10 mg/kg orally) was 28%, the “Frequency of Animals having Tumors, Sum of Tumors (animals with tumor / animals in group)” value (10 mg/kg orally) was 13/19 and the “Frequency of Animals having Tumors, Sum of Tumors (percent)” value (10 mg/kg orally) was 72%. The “Tumor Multiplicity, Carcinoma (average number of tumors per individual ± standard deviation)” value (10 mg/kg orally) was 0.29 ± 0.47, the “Tumor Multiplicity, Adenoma (average number of tumors per individual ± standard deviation)” value (10 mg/kg orally, P < 0.05) was 1.00 ± 1.00 and the “Tumor Multiplicity, Sum of Tumors (average number of tumors per individual ± standard deviation)” value (10 mg/kg orally, P < 0.05) was 1.22 ± 1.06. The “frequency of animals each having tumor (adenoma or carcinoma) compared with the untreated group” value [2] was “lower value” and the “tumor multiplicity (adenoma or carcinoma) compared with the untreated group” value [2] was “lower value”.
